Columns and labels:
[1] = Hemolysis assay (endosomal escape ability of LNPs); type: cell-based; settings: pH 7.4; LNPs formulated with the lipid
Protocol: (§1) The formulation was kept at 4° C. until used in the luciferase expression assay to evaluate LNP's potency, and for toxicity using LDH assay in the HeLa and HEK293 cells. LNPs were used in the TNS assay to determine the experimental (apparent) pKa of the ionizable lipid. Hemolysis assay was used to determine the indirect endosomal escape (EE) capability of the LNPs. LNPs were evaluated in vivo for luciferase expression 6 h and 24 h post-dose in mice through i.m. injection at […]. Mice were sacrificed at the end point and then organs were harvested for ex-vivo imaging.
FIG. 6 illustrates endosomal escape ability of LNPs formulated using the ionizable lipids using a hemolysis assay.

Hek 293 FT cells = assay: LDH toxicity assay; type: cell-based; settings: two separate batches
Protocol: GILP-133 was tested in an assay to measure the level of lactate dehydrogenase (LDH), also known as lactic acid dehydrogenase. The LDH assay protocol is based on an enzymatic coupling reaction: LDH released from the cell oxidizes lactate to generate NADH, which then reacts with WST to generate a yellow color. The intensity of the generated color correlates directly with the number of lysed cells. This gives an indication of cytotoxicity, looking at the % of viable cells remaining. In this testing, Hek 293 FT cells were used 10 uL 1% Triton was added to positive control wells and incubated for 5 min. 50 uL cell culture medium was transferred to black 96-well plate. 50 uL LDH assay solution is added and incubated for 10 min at room temperature. Subsequently 50 ul stop solution was added and fluorescence intensity was read using a microplate reader.

mice = assay: Animal luciferase expression study, intramuscular injection, IVIS imaging; type: in vivo; settings: i.m., 5 μg of mRNA per mouse, organs at 24 h, compared to all GIL-133 formulations
Protocol: as §1
These samples were injected to mice through intramuscular injection at the leg site at a dose of 5 μg of mRNA per mouse. Compositions with control LNP of FIG. 7 were used as positive control. At 6 h and 24 h post injection, the mice were subjected to IVIS imaging system to take the whole-body image. […] The same trend was found in the whole-body imaging results.
At 24 h, the mice were sacrificed, and the main organs include heart, liver, spleen, lung, kidneys, muscle, dLNs and ndLNs were collected and imaged. […] All results are shown in 11A, 11B, 11C, 11D, and 11E.

## CCCCCCCCC(CCCCCC)C(=O)OCCCCCCCN(C)CCCN(C)CCCCCCCOC(=O)C(CCCCCC)CCCCCCCC (centres unmarked) [GILP-124, (propane-1,3-diylbis(methylazanediyl))bis(heptane-7,1-diyl)bis(2-hexyldecanoate)]
[1]
  hemolysis at neutral pH: negligible hemolysis

## CCCCCCCCC(CCCCCC)C(=O)OCCCCCCCN(CC)CCCN(CC)CCCCCCCOC(=O)C(CCCCCC)CCCCCCCC (centres unmarked) [GILP-126, (propane-1,3-diylbis(ethylazanediyl))bis(heptane-7,1-diyl)bis(2-hexyldecanoate)]
[1]
  hemolysis at neutral pH: negligible hemolysis

## CCCCCCCCC(CCCCCC)C(=O)OCCCCCCCN(C)[C@@H]1CCCC[C@H]1N(C)CCCCCCCOC(=O)C(CCCCCC)CCCCCCCC (stereo partly drawn) [GILP-133, (((1R,2S)-cyclohexane-1,2-diyl)bis(methylazanediyl))bis(heptane-7,1-diyl)bis(2-hexyldecanoate)]
Hek 293 FT cells
  % cell viability compared to control cationic lipid of FIG. 7: equivalent % cell viability

## CCCCCCCCCCCOC(=O)CCCCCN(CCO)CCCCCCCC(=O)OC(CCCCCCCC)CCCCCCCC [positive control, heptadecan-9-yl 8-[2-hydroxyethyl-(6-oxo-6-undecoxyhexyl)amino]octanoate]
mice
  luciferase expression in ndLNs: higher level of luciferase expression
  luciferase expression in spleen: higher level of luciferase expression

Source: patent publication US20250275918A1, “LIPID COMPOSITIONS AND METHODS FOR NUCLEIC ACID DELIVERY” (GREENLIGHT BIOSCIENCES, INC., priority 2022, published 2025)
